Where only a bound is given, the exact number is not on record here.

A word on the melting point: it is the temperature, or range, at which the solid turns liquid.

Compound `O=C(CN1CCN(c2ccc(CO)c(Cl)c2)CC1)c1cc2ccccc2o1` gave a melting point of 169 to 172 °C.

Compound `O=C1Nc2cc(Cl)ccc2C(=O)C1c1cccnc1` (stereo unspecified) gave a melting point of more than 340 °C.

As for `O=[N+]([O-])c1cc(Br)ccc1Nc1cccc(-n2ccnc2)n1`, the melting point fell in the range of 194 to 195 °C.

For the compound `O=C1C2=C(NC(=O)C3(N2)OCCO3)c2ccccc21`, the melting point was in the range of 296 to 301 °C.

`CCOc1ccccc1OCC1(O)CCN(Cc2ccccc2)C1` (stereo unspecified) displayed a melting point of 56.5 to 59 °C.

Take `O=C(O)C(=O)c1ccc(OCOc2ccccc2)cc1`: the melting point lay within 72 to 74 °C.

`COc1cc2ccnc(C(S)(C#N)CCC(=O)O)c2cc1OC` (stereo unspecified) gave a melting point of 169 to 170 °C.

For `Cc1cccc(C(=O)O)c1NC(=S)Cc1ccccc1`, the melting point was in the range of 148 to 150 °C.

In the case of `O=C1CCC(N2Cc3c(OCc4ccc5nccn5c4)cccc3C2=O)C(=O)N1` (stereo unspecified), the melting point fell in the range of 270 to 272 °C.

For `O=C(Nc1cccnc1)N1CCN(c2nccc(-c3cc(F)ccc3F)n2)CC1`, the melting point lay in the range of 270 to 271 °C.

`COc1ccc(-c2nc(S(=O)CC3OCCO3)[nH]c2-c2ccc(OC)cc2)cc1` (stereo unspecified) showed a melting point of 203 to 204 °C.

`O=C(O)c1cn([C@@H]2C[C@@H]2F)c2c(Cl)c(N3CC4=C(CNC4)C3)c(F)cc2c1=O` registered a melting point of 221 to 223 °C.

As for `CCOC(=O)COc1cc(OC)cc2c1c1c(n2Cc2ccccc2)CCCC1C(N)=O` (stereo unspecified), the melting point fell in the range of 167 to 169 °C.

`CCOC(=O)C=Cc1c(C#N)cnn1-c1ccc(Cl)c(Cl)c1Cl` came in with a melting point of 131 to 134 °C.

The compound `CCc1nn(C2CCCC2)c2cc(C(=O)NCc3ccncc3)ccc12` returned a melting point of 147 to 149 °C.

For `COC(=O)CNc1ccc(CCNC(=O)c2ccc(C#N)cc2)cc1`, the melting point is 161 to 162 °C.

In the case of `CCC12CCC3C4=C(CCC3C1CCC2O)CC(OC)=CC4` (stereo unspecified), the melting point lay in the range of 98 to 104 °C.

As for `COC(=O)CC[C@H](NC(=O)c1c[nH]c(CCC2CNc3nc(NC(=O)C(C)(C)C)nc(O)c3C2)n1)C(=O)OC` (stereo partly specified), the melting point fell in the range of 129 to 131 °C.

Consider `Cc1ccc([N+](=O)[O-])c(C=C2C(=O)NC(=O)N2C)c1C`, for which the melting point lay in the range of 195 to 198 °C.

Consider `CC(C)(C)OC(=O)NC1CC2CCCC(C1)N2Cc1ccccc1` (stereo unspecified), for which the melting point is 154 to 155 °C.

With `COC(=O)[C@H](Cc1cc(Cl)c(OCc2cccc3nc(-c4ccccc4)oc23)c(Cl)c1)NC(=O)C(F)(F)F`, the melting point fell in the range of 168 to 170 °C.

In turn, `CN1C(=S)N(c2ccc(Cl)c(Cl)c2)C(=N)C1(C)C` gave a melting point of 133 °C.

With `O=[N+]([O-])c1cccc(-c2coc3ccccc23)c1`, the melting point was in the range of 86 to 86.5 °C.

Compound `COC(=O)C(Oc1ccc(NC(C)=O)cc1)c1ccc(Oc2ccc(Cl)cc2)cc1` (stereo unspecified) displayed a melting point of 152 to 157 °C.

Take `CCOC(=O)c1ncn2c1c(=O)n(C)c1ccccc12`: the melting point fell in the range of 218 to 220 °C.

`CCc1c(C(=O)c2cc(C)cc(C)c2)n(CC=CC(=O)OC(C)C)c(=O)[nH]c1=O` yielded a melting point of 175 to 176 °C.

In turn, `CC(=O)C(CCCc1ccccc1)n1ncc2c(=O)[nH]c(Cc3ccc(-c4cccnc4)cc3)nc21` (stereo unspecified) had a melting point of 108 °C.

`CCOC(=O)/C=C/C(=C(c1ccc(F)cc1)c1ccc(F)cc1)C(C)C` gave a melting point of 66 to 67 °C.

For the compound `Cc1ccc(C(=O)Nc2nc(=O)n(C)cc2F)cc1`, the melting point was in the range of 229 to 230 °C.

Compound `C#CCn1ccc(CO)c1C(F)(F)F` came in with a melting point of 63 °C.

`Cc1ccc2c(c1)nnn2C(=O)N1CCOCC1` registered a melting point of 81 to 82 °C.

`CN(C1c2cc(O)ccc2OC(C)(C)C1O)S(C)(=O)=O` (stereo unspecified) displayed a melting point of 204 to 206 °C.

With `CC(C)CCN1C(=O)C(NC(=O)Oc2ccccc2)C(=O)N(c2ccccc2)c2ccc(F)cc21` (stereo unspecified), the melting point lay within 160 to 165 °C.

`COc1cc(NC(=O)CCCCCN2CCNCC2)c2nccc(C)c2c1` displayed a melting point of 122 to 124 °C.

The compound `O=C1c2ccc(N3CCCCC3)c3cc(Br)cc(c23)C(=O)N1O` had a melting point of 134 to 136 °C.

`COC(=O)CCC(=O)c1ccc(Br)cc1` had a melting point of 49 to 51 °C.

Take `C=CC(=O)NCc1c(-c2ccccc2)n[nH]c1C`: the melting point lay within 191 to 193 °C.

Take `CS(=O)(=O)c1ccc(-c2cnn(-c3cccc(Cl)c3)c(=O)c2SCc2ccccc2)cc1`: the melting point was in the range of 142 to 145 °C.

On to `CC(C)(C)OC(=O)N1CCC(c2nc3cc(-c4ccc(-c5nnn[nH]5)c(F)c4)ccc3o2)CC1`, for which the melting point fell in the range of 163 to 167 °C.

The compound `CCN(CC)C(=O)c1cnn(C)c1C(=O)Nc1ccn2nc(-c3ccccc3)nc2c1` displayed a melting point of 177 to 179 °C.

Compound `CC(=O)Nc1c(OC(C)=O)cc(C(C)(C)C)cc1[N+](=O)[O-]` yielded a melting point of 200 to 201 °C.

As for `CCOC(=O)CCCOc1cc(C=Cc2ccc3ccc(Br)cc3n2)ccc1Cl`, the melting point fell in the range of 215 to 220 °C.

In turn, `COc1ccc(C(c2ccc(OC)cc2)C2CN(C)CCC2=O)cc1` (stereo unspecified) showed a melting point of 104 to 106 °C.

With `COc1ccc(C(=O)Nc2ccccc2)cc1NS(=O)(=O)c1cccs1`, the melting point is 180 to 183 °C.

In turn, `O=C(O)/C=C1\CCc2c(Cl)cc(F)cc21` returned a melting point of 229 to 230 °C.

Consider `COC(=O)CC1COc2cc(OCc3csc(-c4ccccc4)n3)ccc21` (stereo unspecified), for which the melting point lay within 116 to 117 °C.

For the compound `CO[C@@H]1COCC[C@]1(OC)c1cccc(OCc2ccc3ccccc3c2)c1` (racemic), the melting point was 86 to 88 °C.

`CC(=O)OCCn1ccc(=O)c(O)c1Cc1ccc(C)cc1` registered a melting point of 205 to 206 °C.

`NC(=O)c1cnn2cccc2c1Nc1ccccc1` showed a melting point of 247 °C.

As for `CC(C)(C(O)c1ccc(Br)cc1)n1ncn(-c2ccc(N3CCN(c4ccc(O)cc4)CC3)cc2)c1=O` (stereo unspecified), the melting point was 224 °C.

As for `Oc1nc(Cc2ccc(F)cc2)ncc1F`, the melting point was in the range of 169 to 170 °C.

With `CC(CC(N)=O)(c1ccc(O)cc1)c1ccc(O)cc1`, the melting point came out at 216 °C.

On to `Nc1cc(-n2ccnc2)c(F)cc1[N+](=O)[O-]`, for which the melting point is 122 to 123 °C.

Take `NS(=O)(=O)c1ccc(-c2c(CC(O)c3ccc(Cl)cc3)noc2-c2ccccc2)cc1` (stereo unspecified): the melting point fell in the range of 165 to 167 °C.

The compound `COc1c(C(C)=O)c(OC2SCC(O)C(O)C2O)c(OC)c2occc12` (stereo unspecified) registered a melting point of 207 to 209 °C.

Compound `Cc1nc2c(O[C@@H]3c4ccccc4CC[C@H]3O)cccn2c1CC#N` (relative stereo) returned a melting point of 154 to 155 °C.

Take `CCOC(=O)COc1coccc1=O`: the melting point was 58 to 60 °C.

Compound `OC1(c2ccc(Cl)nc2)CCCC1` displayed a melting point of 92 to 93 °C.

Turning to `CCC(Oc1ccccc1)C(=O)NCCO[N+](=O)[O-]` (stereo unspecified), the melting point lay in the range of 59 to 61 °C.

On to `O=Cc1ccc(NS(=O)(=O)c2ccccc2)cc1O`, for which the melting point was 150 to 157 °C.

`Cc1ccc(S(=O)(=O)OCC2CCc3sc(C)nc3C2)cc1` (stereo unspecified) displayed a melting point of 105 to 106 °C.

`Cc1cccc(-n2c(=O)[nH]c3ccc(F)cc3c2=O)c1` yielded a melting point of 278 to 279 °C.

`O=C(NNc1ccccc1)c1ccc(F)cc1F`: the melting point lay in the range of 171 to 173 °C.

Regarding `CC1=C(C#N)C(C)(c2ccccc2)C(C#N)=C(C)N1`, the melting point was 195 to 196 °C.

As for `CN(C)C(=O)CCC(=O)NC1CCC(CCN2CCN(c3nccc4c3CCO4)CC2)CC1` (stereo unspecified), the melting point was 188 °C.

Compound `CC(C)Cc1cccc(-c2nc(C(C)C)n(C)n2)n1` came in with a melting point of 80.1 °C.

In turn, `Cc1ccc(C(N)=O)c(C)c1` registered a melting point of 184 to 186 °C.

Turning to `O=C(N[C@H](Cc1ccc(C(F)(F)F)cc1)[C@@H](O)c1ccccc1F)c1ccc(F)c2ccccc12` (racemic), the melting point was in the range of 190 to 191 °C.

In turn, `Cc1ccc2c(c1)Sc1ccc(F)cc1C(N1CCN(CCN3CCOC3=O)CC1)C2` (stereo unspecified) returned a melting point of 147 to 149 °C.

Compound `CSC(=S)NCc1c[nH]c2ccccc12` gave a melting point of 132 to 133 °C.

For the compound `COCCOCOc1ccc2cc(C(=O)N(C)Cc3cccc(-c4ccc(Nc5cccc(C(=O)O)c5)cc4)c3)ccc2c1`, the melting point was 60 °C.

`Cc1ccc(NC(=N)c2ccncc2)cc1`: the melting point lay within 120 to 123 °C.

In the case of `CCOC(=O)C1(C(=O)OCC)COC2(CC(C)(C)N(C(C)=O)C(C)(C)C2)OC1`, the melting point lay within 75 to 77 °C.

The compound `NC(=O)c1ccccc1CNC(=S)NC(=O)c1ccccc1` came in with a melting point of 147 to 150 °C.

In turn, `COC(=O)n1c(=O)oc2c(Cl)c(Cl)c(Cl)cc21` returned a melting point of 163 to 164 °C.

In turn, `CC1COCC(C)N1C(=O)N1Cc2c(-c3noc(C4CC4)n3)ncn2-c2ccc(F)cc21` (stereo unspecified) came in with a melting point of 143 to 146 °C.

`CCN(CC)c1ccc(/C=C(\C)c2ccc3c(c2)C(C)(C)CCC3(C)C)cc1` registered a melting point of 89 to 90 °C.

For `COC(=O)c1nc(Br)cc(Br)c1O`, the melting point is 181 to 183 °C.

`O=C(O)c1cccnc1N1CCN(CCOC2c3ccccc3CSc3ccccc32)CC1` (stereo unspecified) showed a melting point of 217 to 218 °C.

In the case of `Cc1ncoc1CN1CCc2c(c3cccc(F)c3n2C)C1=O`, the melting point lay within 158 to 161 °C.

For the compound `CCOC(=O)Cc1ccc(OCc2ccc3oc([N+](=O)[O-])c(-c4ccccc4)c3c2)cc1`, the melting point was 74 to 75 °C.

In turn, `COC(=O)[C@H]1[C@H](C(=O)OC)C1(Br)C=O` (stereo partly specified) displayed a melting point of 52 °C.

Compound `CCOC(=O)c1cc2c(nc1CCl)CCCCC2` returned a melting point of 81 to 82 °C.

In turn, `COc1cc(C(O)C#Cc2cnc(N)nc2N)cc(OC)c1OC` (stereo unspecified) came in with a melting point of 203 to 205 °C.

As for `CCCCN(C)Cc1[nH]c2ccccc2c1CC1C(=O)N(c2ccccc2)N=C1C` (stereo unspecified), the melting point lay within 180 to 200 °C.

`COc1cccc(C23CC(=O)NC(=O)C2=CCC(C)C3)c1` (stereo unspecified) gave a melting point of 218 to 221 °C.

Take `CSc1ccc(C2=C(Br)CCC2)cc1`: the melting point fell in the range of 52 to 54 °C.

As to `Cn1cc(-c2ccnc(Cl)n2)c(-c2ccc(Cl)cc2Cl)n1`, the melting point is 165 to 166 °C.

As for `N#Cc1cccc2c1CC(Br)C2=O` (stereo unspecified), the melting point is 124 °C.

Consider `C=CCn1c(=O)c(C(=O)OCC)c(N2CCCC2)c2ccc(C)nc21`, for which the melting point lay within 97 to 103 °C.

As to `COc1ccc(S(=O)(=O)n2ccc3ccnc(-c4ccc(F)cc4)c32)cc1`, the melting point was 136 to 137 °C.

The values are drawn from a melting point compilation (Tetko et al.; mined from patent text by program, amines drawn as free bases though some values may be those of a salt).
